Data as given in patent US10221161B2, “Inhibitors of plasma kallikrein” (Kalvista Pharmaceuticals Limited, priority 2013, dated 2019).

Columns and labels:
[1] = biological target: Human KLK1 (Homo sapiens (Human), UniProt P06870); experiment: Determination of the IC50 for KLK1 (fluorogenic substrate H-DVal-Leu-Arg-AFC); type: biochemical; conditions: human KLK1, 37° C.
Experimental: Selected compounds were further screened for inhibitory activity against the related enzyme KLK1. The ability of the compounds of formula (I) to inhibit KLK1 may be determined using the following biological assay:
Determination of the IC50 for KLK1
KLK1 inhibitory activity in vitro was determined using standard published methods (see e.g. Johansen et al., Int. J. Tiss. Reac. 1986, 8, 185; Shori et al., Biochem. Pharmacol., 1992, 43, 1209; Stürzebecher et al., Biol. Chem. Hoppe-Seyler, 1992, 373, 1025). Human KLK1 (Callbiochem) was incubated at 37° C. with the fluorogenic substrate H-DVal-Leu-Arg-AFC and various concentrations of the test compound. Residual enzyme activity (initial rate of reaction) was determined by measuring the change in optical absorbance at 410 nm and the IC50 value for the test compound was determined.

[2] = biological target: Human plasma kallikrein (Homo sapiens (Human), UniProt P03952); experiment: Determination of the IC50 for plasma kallikrein (fluorogenic substrate H-DPro-Phe-Arg-AFC); type: biochemical; conditions: 37° C., read-out: IC50 (human PKal)
Chain of Human plasma kallikrein (P03952 391-638 limits assumed): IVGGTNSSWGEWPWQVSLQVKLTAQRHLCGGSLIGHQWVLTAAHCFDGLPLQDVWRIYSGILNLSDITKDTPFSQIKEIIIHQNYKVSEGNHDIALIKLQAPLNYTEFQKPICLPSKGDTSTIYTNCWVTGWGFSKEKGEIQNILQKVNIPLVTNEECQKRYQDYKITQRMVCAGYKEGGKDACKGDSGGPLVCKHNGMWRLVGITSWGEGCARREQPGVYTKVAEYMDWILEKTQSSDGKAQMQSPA
Chain of Human plasma kallikrein (P03952 20-390 partner limits assumed): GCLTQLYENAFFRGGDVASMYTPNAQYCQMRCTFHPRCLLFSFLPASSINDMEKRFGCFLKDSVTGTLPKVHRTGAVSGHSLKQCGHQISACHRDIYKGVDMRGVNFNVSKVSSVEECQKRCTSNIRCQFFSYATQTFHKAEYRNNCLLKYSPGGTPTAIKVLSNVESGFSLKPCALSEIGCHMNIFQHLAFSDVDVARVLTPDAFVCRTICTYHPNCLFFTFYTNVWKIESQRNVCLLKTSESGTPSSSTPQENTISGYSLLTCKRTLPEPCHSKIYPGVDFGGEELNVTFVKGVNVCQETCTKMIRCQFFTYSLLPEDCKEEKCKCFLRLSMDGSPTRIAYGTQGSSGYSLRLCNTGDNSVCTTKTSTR
Experimental: Determination of the IC50 Plasma Kallikrein Plasma kallikrein inhibitory activity in vitro was determined using standard published methods (see e.g. Johansen et al., Int. J. Tiss. […] Shori et al., Biochem. Pharmacol., 1992, 43, 1209; Stürzebecher et al., Biol. Chem. Hoppe-Seyler, 1992, 373, 1025). Human plasma kallikrein (Protogen) was incubated at 37° C. with the fluorogenic substrate […] and various concentrations of the test compound.

Chain of Human KLK1 (P06870 25-262): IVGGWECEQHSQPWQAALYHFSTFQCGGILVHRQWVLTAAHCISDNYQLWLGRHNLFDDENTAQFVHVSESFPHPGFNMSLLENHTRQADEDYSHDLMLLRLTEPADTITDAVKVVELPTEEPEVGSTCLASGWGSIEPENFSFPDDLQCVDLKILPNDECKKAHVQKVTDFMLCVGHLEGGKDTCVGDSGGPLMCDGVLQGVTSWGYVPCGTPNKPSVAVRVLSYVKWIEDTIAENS

Row | SMILES | IC50 [1] [µM] | IC50 [2] [µM]
1 | COc1ccccc1Cc1cncc(C(=O)NCc2ccc3c(N)nccc3c2)c1 [Example 29, N-[(1-Aminoisoquinolin-6-yl)methyl]-5-[(2-methoxyphenyl)methyl]pyridine-3-carboxamide] | 7.35 | 20.2
2 | Cc1ccc2cc(Cc3cncc(C(=O)NCc4ccc5c(N)nccc5c4)c3)ccc2n1 [Example 17, N-[(1-Aminoisoquinolin-6-yl)methyl]-5-[(2-methylquinolin-6-yl)methyl]pyridine-3-carboxamide] | 1.12 | 0.0275
3 | CN1CCOc2cc(Cc3cncc(C(=O)NCc4ccc5c(N)nccc5c4)c3)ccc21 [Example 38, N-[(1-Aminoisoquinolin-6-yl)methyl]-5-[(4-methyl-2,3-dihydro-1,4-benzoxazin-7-yl)methyl]pyridine-3-carboxamide] | 8.6 | 0.107
4 | Nc1nccc2cc(CNC(=O)c3cncc(Cc4ccc(N5CCC(CO)C5)nc4)c3)ccc12 (stereo not shown) [Example 71, N-[(1-Aminoisoquinolin-6-yl)methyl]-5-({6-[3-(hydroxymethyl)pyrrolidin-1-yl]pyridin-3-yl}methyl)pyridine-3-carboxamide] | 3.95 | 0.306
5 | Nc1nccc2cc(CNC(=O)c3cncc(Cc4ccc(F)nc4)c3)ccc12 [Example 54, N-[(1-Aminoisoquinolin-6-yl)methyl]-5-[(6-fluoropyridin-3-yl)methyl]pyridine-3-carboxamide] | 10.7 | 14.6
6 | Nc1nccc2cc(CNC(=O)c3cncc(CN4CCN(CC(=O)O)CC4)c3)ccc12 [Example 52, {4-[(5-{[(1-Aminoisoquinolin-6-yl)methyl]carbamoyl}pyridin-3-yl)methyl]piperazin-1-yl}acetic acid] | > 10 | 10
7 | COC1CCN(c2cc(Cc3cncc(C(=O)NCc4ccc5c(N)nccc5c4)c3)ccn2)C1 (stereo not shown) [Example 88, N-[(1-Aminoisoquinolin-6-yl)methyl]-5-{[2-(3-methoxypyrrolidin-1-yl)pyridin-4-yl]methyl}pyridine-3-carboxamide] | 9.85 | 0.234
8 | CN(C)[C@@H]1CCN(c2cc(Cc3cncc(C(=O)NCc4ccc5c(N)nccc5c4)c3)ccn2)C1 (stereo in doubt) [Example 90, N-[(1-Aminoisoquinolin-6-yl)methyl]-5-({2-[3-(dimethylamino)pyrrolidin-1-yl]pyridin-4-yl}methyl)pyridine-3-carboxamide] | 3.88 | 1.55
9 | CC1CCCN1c1cc(Cc2cncc(C(=O)NCc3ccc4c(N)nccc4c3)c2)ccn1 (stereo not shown) [Example 79, N-[(1-Aminoisoquinolin-6-yl)methyl]-5-{[2-(2-methylpyrrolidin-1-yl)pyridin-4-yl]methyl}pyridine-3-carboxamide] | 7.14 | 0.155
10 | CNc1ncc(C(=O)NCc2ccc3c(N)nccc3c2)cc1Cc1ccc2nc(C)ccc2c1 [Example 21, N-[(1-Aminoisoquinolin-6-yl)methyl]-6-(methylamino)-5-[(2-methylquinolin-6-yl)methyl]pyridine-3-carboxamide] | 5.99 | 0.0533
11 | Cc1ccc2cc(Cc3cnc(C)c(C(=O)NCc4ccc5c(N)nccc5c4)c3)ccc2n1 [Example 22, N-[(1-Aminoisoquinolin-6-yl)methyl]-2-methyl-5-[(2-methylquinolin-6-yl)methyl]pyridine-3-carboxamide] | 0.484 | 0.104
12 | Nc1nccc2cc(CNC(=O)c3cncc(Cc4ccc(N5CCC(F)C5)nc4)c3)ccc12 (stereo not shown) [Example 60, N-[(1-Aminoisoquinolin-6-yl)methyl]-5-{[6-(3-fluoropyrrolidin-1-yl)pyridin-3-yl]methyl}pyridine-3-carboxamide] | 8.69 | 0.137
13 | CC(C)N(C)c1ccc(Cc2cncc(C(=O)NCc3ccc4c(N)nccc4c3)c2)cn1 [Example 73, N-[(1-Aminoisoquinolin-6-yl)methyl]-5-({6-[isopropyl(methyl)amino]pyridin-3-yl}methyl)pyridine-3-carboxamide] | 6.69 | 0.0511
14 | COc1ccccc1CN1CCN(Cc2cncc(C(=O)NCc3ccc4c(N)nccc4c3)c2)CC1 [Example 42, N-[(1-Aminoisoquinolin-6-yl)methyl]-5-({4-[(2-methoxyphenyl)methyl]piperazin-1-yl}methyl)pyridine-3-carboxamide] | 24.3 | 1.83
15 | Nc1nccc2cc(CNC(=O)c3cncc(Cc4ccnc(N5CCC(F)(F)C5)c4)c3)ccc12 [Example 80, N-[(1-Aminoisoquinolin-6-yl)methyl]-5-{[2-(3,3-difluoropyrrolidin-1-yl)pyridin-4-yl]methyl}pyridine-3-carboxamide] | 7.55 | 0.0885
16 | Cc1cnn(Cc2ccc(Cc3cncc(C(=O)NCc4c(C)nc5[nH]ccc(C)c4-5)c3)cc2)c1 [Example 12, N-({2,4-Dimethyl-7H-pyrrolo[2,3-b]pyridin-3-yl}methyl)-5-({4-[(4-methylpyrazol-1-yl)methyl]phenyl}methyl)pyridine-3-carboxamide] | 14.9 | 0.244

Row | SMILES | IC50 [1] [µM] | IC50 [2] [µM]
17 | CC(C)Oc1ccc(Cc2cncc(C(=O)NCc3ccc4c(N)nccc4c3)c2)cn1 [Example 70, N-[(1-Aminoisoquinolin-6-yl)methyl]-5-[(6-isopropoxypyridin-3-yl)methyl]pyridine-3-carboxamide] | > 10 | 1.74
18 | Nc1nccc2cc(CNC(=O)c3cncc(Cc4ccc(N5CCCC5)nc4)c3)ccc12 [Example 55, N-[(1-Aminoisoquinolin-6-yl)methyl]-5-{[6-(pyrrolidin-1-yl)pyridin-3-yl]methyl}pyridine-3-carboxamide] | 4.96 | 0.103
19 | COc1cccc(Cc2cncc(C(=O)NCc3ccc4c(N)nccc4c3)c2)c1 [Example 25, N-[(1-Aminoisoquinolin-6-yl)methyl]-5-[(3-methoxyphenyl)methyl]pyridine-3-carboxamide] | 6.17 | 2.64
20 | Cc1cnn(Cc2ccc(Cc3cnnc(C(=O)NCc4ccc5c(N)nccc5c4)c3)cc2)c1 [Example 11, N-[(1-Aminoisoquinolin-6-yl)methyl]-5-({4-[(4-methylpyrazol-1-yl)methyl]phenyl}methyl)pyridazine-3-carboxamide] | 37.1 | 0.0823
21 | Nc1nccc2cc(CNC(=O)c3cncc(CN4CCN(CC5CCCC5)CC4)c3)ccc12 [Example 43, N-[(1-Aminoisoquinolin-6-yl)methyl]-5-{[4-(cyclopentylmethyl)piperazin-1-yl]methyl}pyridine-3-carboxamide] | 17.9 | 11
22 | Cc1ccc2cc(Cc3cncc(C(=O)NCc4ccc5c(N)nccc5c4)n3)ccc2n1 [Example 10, N-[(1-Aminoisoquinolin-6-yl)methyl]-6-[(2-methylquinolin-6-yl)methyl]pyrazine-2-carboxamide] | 3.02 | 0.194
23 | CN1CCN(c2cc(Cc3cncc(C(=O)NCc4ccc5c(N)nccc5c4)c3)ccn2)CC1 [Example 86, N-[(1-Aminoisoquinolin-6-yl)methyl]-5-{[2-(4-methylpiperazin-1-yl)pyridin-4-yl]methyl}pyridine-3-carboxamide] | 4.46 | 0.395
24 | Nc1nccc2cc(CNC(=O)c3ccc(=O)n(Cc4ccc(Cn5ccccc5=O)cc4)c3)ccc12 [Example 5, N-[(1-Aminoisoquinolin-6-yl)methyl]-6-oxo-1-({4-[(2-oxopyridin-1-yl)methyl]phenyl}methyl)pyridine-3-carboxamide] | 28.9 | 0.0247
25 | CCOC(=O)C1CCN(c2ccc(Cc3cncc(C(=O)NCc4ccc5c(N)nccc5c4)c3)cn2)C1 (stereo not shown) [Example 72, Ethyl 1-{5-[(5-{[(1-aminoisoquinolin-6-yl)methyl]carbamoyl}pyridin-3-yl)methyl]pyridin-2-yl}pyrrolidine-3-carboxylate] | 3.62 | 0.86
26 | Cc1cnn(Cc2ccc(C(O)c3cncc(C(=O)NCc4ccc5c(N)nccc5c4)c3)cc2)c1 (stereo not shown) [Example 7, N-((1-Aminoisoquinolin-6-yl)methyl)-5-(hydroxy(4-((4-methyl-1H-pyrazol-1-yl)methyl)phenyl)methyl)nicotinamide] | 8.02 | 0.0353
27 | Nc1nccc2cc(CNC(=O)c3cncc(Cc4ccnc(N5CCCC5)c4)c3)ccc12 [Example 77, N-[(1-Aminoisoquinolin-6-yl)methyl]-5-{[2-(pyrrolidin-1-yl)pyridin-4-yl]methyl}pyridine-3-carboxamide] | 4.8 | 0.0377
28 | Cc1cnn(Cc2ccc(Cc3ccnc(C(=O)NCc4cnc5[nH]ccc5c4)c3)cc2)c1 [Example 4] | > 40 | –
29 | Cc1cnn(Cc2ccc(Cc3cncc(C(=O)NCc4cnc5[nH]ccc5c4)c3)cc2)c1 [Example 2] | > 10 | –
30 | Nc1nccc2cc(CNC(=O)c3cncc(CN4CCN(c5ccccc5)CC4)c3)ccc12 [Example 39, N-[(1-Aminoisoquinolin-6-yl)methyl]-5-[(4-phenylpiperazin-1-yl)methyl]pyridine-3-carboxamide] | – | 10
31 | Cc1cnn(Cc2ccc(Cc3cncc(C(=O)NCc4ccc5c(N)nccc5c4)c3)cc2)c1 [Example 1, N-[(1-Aminoisoquinolin-6-yl)methyl]-({4-[(4-methylpyrazol-1-yl)methyl]phenyl}methyl)pyridine-3-carboxamide] | > 10 | –
